Results: patent US20140220640A1, “METHOD FOR MANUFACTURING DETOXIFICATED LIGNOCELLULOSIC BIOMASS HYDROLYSATE WITH DECREASED OR ELIMINATED TOXICITY AND METHOD FOR MANUFACTURING ORGANIC OR AND BIOFUEL USING THE SAME” (KOREA INSTITUTE OF SCIENCE AND TECHNOLOGY, priority 2011, published 2014)

Experiments:
[1] = test system: Clostridium tyrobutyricum (ATCC 25755); assay: Growth of Clostridium tyrobutyricum in batch culture (absorbance at 600 nm); format: cell-based; conditions: 1 g/L phenolic compound in medium, vs control with no phenolic compound; FIG. 3
Method: (§1) In order to investigate the effect of phenolic compounds on the growth of microorganisms and production of butanol or butyric acid by the microorganisms, microorganisms were cultured in a medium containing phenolic compounds and the cell weight of the microorganisms and the concentration of produced butanol and butyric acid was measured.
(§2) A butyric acid fermentation medium included 20 g of glucose, 5 g of yeast extract, 0.2 g of magnesium sulfate, 0.01 g of manganese sulfate, 0.01 g of iron sulfate, 0.01 g of sodium chloride, 0.5 g of monopotassium phosphate (KH2PO4), 0.5 g of dipotassium phosphate (K2HPO4) and 2 g of ammonium acetate per liter. And, a butanol fermentation medium included 20 g of glucose, 5 g of yeast extract, 0.2 g of magnesium sulfate, 0.01 g of manganese sulfate, 0.01 g of iron sulfate, 0.01 g of sodium chloride, 0.5 g of monopotassium phosphate (KH2PO4), 0.5 g of dipotassium phosphate (K2HPO4) and 2 g of ammonium acetate per liter. Each medium was flushed with argon gas and sterilized at 121° C. for 15 minutes before measurement. Initial pH was adjusted to 6.8 with 1 N potassium hydroxide (KOH).
p-Coumaric acid, ferulic acid, syringaldehyde and vanillic acid, 1 g/L each, were added to the medium as phenolic compounds. A medium with no phenolic compound added was used as control.
Butyric acid fermentation was conducted using Clostridium tyrobutyricum (American Type Culture Collection, ATCC 25755) after culturing for two passages. Butanol fermentation was conducted using Clostridium acetobutylicum (ATCC 824) and Clostridium beijerinckii (National Collection of Industrial, Marine and Food Bacteria, NCIMB 8052) after culturing for two passages.
Butyric acid and butanol fermentation was carried out by adding the culture fluid to a batch fermenter. Batch culture was performed by adding 20 mL of the medium to a 60-mL serum bottle, adding the culture fluid with an amount of 5% based on the medium and then incubating in a shaking incubator at 37° C. and 150 rpm.
The growth of the microorganisms was evaluated by measuring absorbance at 600 nm using a spectrophotometer (UVmini-1240, Shimadzu).
As the surfactant, Tween 80 (BioXtra, Sigma, viscous liquid) was used. The phenolic compound and Tween 80 were added at an amount of 1 g/L to the medium of Example 1. A medium with no phenolic compound or Tween 80 added was used as control.
The growth of Clostridium tyrobutyricum (ATCC 25755) and production of butyric acid thereby in the medium containing the phenolic compounds, 1 g/L each, and 1 g/L of Tween 80 were measured.
Other experimental conditions were the same as in Example 1.
1 g/L of lignin (alkali, Sigma Aldrich 471003) was added to the medium of Example 1 instead of the phenolic compounds. […]

[2] = test system: Clostridium tyrobutyricum (ATCC 25755); assay: Production of butyric acid by Clostridium tyrobutyricum (gas chromatography); format: cell-based; conditions: 1 g/L phenolic compound plus 1 g/L Tween 80; FIG. 4
Method: as §1
as §2, with “Each medium was flushed with argon gas and sterilized at 121° C. for 15 minutes before measurement. Initial pH was adjusted to 6.8 with 1 N potassium hydroxide (KOH).” left out
The concentration of butyric acid and butanol was analyzed using a gas chromatography system (Agilent Technologies 6890N Network GC system) equipped with a flame ionization detector. […]
The growth of Clostridium tyrobutyricum (ATCC 25755) and production of butyric acid thereby in the medium containing the phenolic compounds, 1 g/L each, and 1 g/L of Tween 80 were measured. […]

SMILES | inhibiting the growth of the microorganism [1] [%] | detoxifying effect of added surfactant on butyric acid production [2]
COc1cc(C(=O)O)ccc1O [vanillic acid] | 48 | –
O=C(O)/C=C/c1ccc(O)cc1 [p-coumaric acid, p-Coumaric acid] | 99 | higher detoxifying effect
COc1cc(C=O)cc(OC)c1O [syringaldehyde] | 30 | –
COc1cc(/C=C/C(=O)O)ccc1O [ferulic acid] | 74 | higher detoxifying effect
